Laboratory results: ChEMBL document CHEMBL3044741, “Synthesis of novel biologically active methylene derivatives of sydnones” (Med Chem Res, 2013)
Values after ≈ are worked out from the molar mass of the structure shown.

Columns and labels:
Assay type in all cases: functional
MDA-MB-468 = assay: Cytotoxicity against human MDA-MB-468 assessed as cell growth at high concentration
T47D = assay: Cytotoxicity against human T47D assessed as cell growth at high concentration
BT-549 = assay: Cytotoxicity against human BT549 assessed as cell growth at high concentration
Hs-578T = assay: Cytotoxicity against human Hs 578T assessed as cell growth at high concentration
MDA-MB-231 = assay: Cytotoxicity against human MDA-MB-231 assessed as cell growth at high concentration
DU-145 = assay: Cytotoxicity against human DU145 assessed as cell growth at high concentration
MCF7 = assay: Cytotoxicity against human MCF7 assessed as cell growth at high concentration
PC-3 = assay: Cytotoxicity against human PC3 assessed as cell growth at high concentration
UO-31 = assay: Cytotoxicity against human UO31 assessed as cell growth at high concentration
TK-10 = assay: Cytotoxicity against human TK10 assessed as cell growth at high concentration
SN12C = assay: Cytotoxicity against human SN12C assessed as cell growth at high concentration
CAKI-1 = assay: Cytotoxicity against human Caki1 assessed as cell growth at high concentration
RXF 393 = assay: Cytotoxicity against human RXF393 assessed as cell growth at high concentration
A498 = assay: Cytotoxicity against human A498 assessed as cell growth at high concentration
786-0 = assay: Cytotoxicity against human 786-0 assessed as cell growth at high concentration
SK-OV-3 = assay: Cytotoxicity against human SKOV3 assessed as cell growth at high concentration
[1] = Cytotoxicity against human NCI-ADR-RES assessed as cell growth at high concentration
OVCAR-8 = assay: Cytotoxicity against human OVCAR8 assessed as cell growth at high concentration
OVCAR-4 = assay: Cytotoxicity against human OVCAR4 assessed as cell growth at high concentration
OVCAR-3 = assay: Cytotoxicity against human OVCAR3 assessed as cell growth at high concentration
IGROV-1 = assay: Cytotoxicity against human IGROV1 assessed as cell growth at high concentration
UACC-257 = assay: Cytotoxicity against human UACC257 assessed as cell growth at high concentration
UACC-62 = assay: Cytotoxicity against human UACC62 assessed as cell growth at high concentration
SK-MEL-28 = assay: Cytotoxicity against human SK-MEL-28 assessed as cell growth at high concentration
SK-MEL-5 = assay: Cytotoxicity against human SK-MEL-5 assessed as cell growth at high concentration
SK-MEL-2 = assay: Cytotoxicity against human SK-MEL-2 assessed as cell growth at high concentration
MDA-MB-435 = assay: Cytotoxicity against human MDA-MB-435 assessed as cell growth at high concentration
M14 = assay: Cytotoxicity against human M14 assessed as cell growth at high concentration
Malme-3M = assay: Cytotoxicity against human MALME-3M assessed as cell growth at high concentration
LOX IMVI = assay: Cytotoxicity against human LOXIMVI assessed as cell growth at high concentration
SNB-75 = assay: Cytotoxicity against human SNB75 assessed as cell growth at high concentration
U-251 = assay: Cytotoxicity against human U251 assessed as cell growth at high concentration
SNB-19 = assay: Cytotoxicity against human SNB19 assessed as cell growth at high concentration
SF-539 = assay: Cytotoxicity against human SF539 assessed as cell growth at high concentration
NCI-H460 = assay: Cytotoxicity against human NCI-H460 assessed as cell growth at high concentration
NCI-H23 = assay: Cytotoxicity against human NCI-H23 assessed as cell growth at high concentration
NCI-H226 = assay: Cytotoxicity against human NCI-H226 assessed as cell growth at high concentration
HOP-62 = assay: Cytotoxicity against human HOP62 assessed as cell growth at high concentration
EKVX = assay: Cytotoxicity against human EKVX assessed as cell growth at high concentration
A549 = assay: Cytotoxicity against human A549 assessed as cell growth at high concentration
RPMI-8226 = assay: Cytotoxicity against human RPMI8226 assessed as cell growth at high concentration
SR = assay: Cytotoxicity against human SR assessed as cell growth at high concentration
MOLT-4 = assay: Cytotoxicity against human MOLT4 assessed as cell growth at high concentration
K562 = assay: Cytotoxicity against human K562 assessed as cell growth at high concentration
CCRF-CEM = assay: Cytotoxicity against human CCRF-CEM assessed as cell growth at high concentration
HL-60(TB) = assay: Cytotoxicity against human HL-60(TB) assessed as cell growth at high concentration
SF-295 = assay: Cytotoxicity against human SF295 assessed as cell growth at high concentration
SF-268 = assay: Cytotoxicity against human SF268 assessed as cell growth at high concentration
SW-620 = assay: Cytotoxicity against human SW620 assessed as cell growth at high concentration
KM12 = assay: Cytotoxicity against human KM12 assessed as cell growth at high concentration
HCT-15 = assay: Cytotoxicity against human HCT15 assessed as cell growth at high concentration
HT-29 = assay: Cytotoxicity against human HT-29 assessed as cell growth at high concentration
HCC 2998 = assay: Cytotoxicity against human HCC2998 assessed as cell growth at high concentration
HCT-116 = assay: Cytotoxicity against human HCT116 assessed as cell growth at high concentration
COLO 205 = assay: Cytotoxicity against human COLO205 assessed as cell growth at high concentration
NCI-H522 = assay: Cytotoxicity against human NCI-H522 assessed as cell growth at high concentration
NCI-H322M = assay: Cytotoxicity against human NCI-H322M assessed as cell growth at high concentration
Aspergillus niger [2] = assay: Antifungal activity against Aspergillus niger MTCC 282
Aspergillus clavatus [3] = assay: Antifungal activity against Aspergillus clavatus MTCC 1323
Candida albicans [4] = assay: Antifungal activity against Candida albicans MTCC 227
Aspergillus niger [5] = assay: Antifungal activity against Aspergillus niger MTCC 282 at 250 ug/ml after 74 hrs by Kirby-Bauer method; details: MTCC 282, 74 h, read-out: IZ
Aspergillus clavatus [6] = assay: Antifungal activity against Aspergillus clavatus MTCC 1323 at 250 ug/ml after 74 hrs by Kirby-Bauer method; details: MTCC 1323, 74 h, read-out: IZ
Candida albicans [7] = assay: Antifungal activity against Candida albicans MTCC 227 at 250 ug/ml after 74 hrs by Kirby-Bauer method; details: MTCC 227, 74 h, read-out: IZ
Pseudomonas aeruginosa [8] = assay: Antibacterial activity against Pseudomonas aeruginosa MTCC 424 after 24 hrs by broth dilution method; details: MTCC 424, 24 h
Streptococcus pyogenes [9] = assay: Antibacterial activity against Streptococcus pyogenes MTCC 442 after 24 hrs by broth dilution method; details: MTCC 442, 24 h
Escherichia coli [10] = assay: Antibacterial activity against Escherichia coli MTCC 443 after 24 hrs by broth dilution method; details: MTCC 443, 24 h
Staphylococcus aureus [11] = assay: Antibacterial activity against Staphylococcus aureus MTCC 96 after 24 hrs by broth dilution method; details: MTCC 96, 24 h
Pseudomonas aeruginosa [12] = assay: Antibacterial activity against Pseudomonas aeruginosa MTCC 424 at 250 ug/ml after 24 hrs by Kirby-Bauer method; details: MTCC 424, 24 h, read-out: IZ
Escherichia coli [13] = assay: Antibacterial activity against Escherichia coli MTCC 443 at 250 ug/ml after 24 hrs by Kirby-Bauer method; details: MTCC 443, 24 h, read-out: IZ
Streptococcus pyogenes [14] = assay: Antibacterial activity against Streptococcus pyogenes MTCC 442 at 250 ug/ml after 24 hrs by Kirby-Bauer method; details: MTCC 442, 24 h, read-out: IZ
Staphylococcus aureus [15] = assay: Antibacterial activity against Staphylococcus aureus MTCC 96 at 250 ug/ml after 24 hrs by Kirby-Bauer method; details: MTCC 96, 24 h, read-out: IZ

Q: For `[O-]c1on[n+](-c2ccc(Cc3ccc(-[n+]4noc([O-])c4CN4CCOCC4)cc3)cc2)c1CN1CCOCC1`, which Activity (MDA-MB-468) is on record?
A: 11.42%

Q: And the Activity (T47D)?
A: 56.09%

Q: And the Activity (BT-549)?
A: 60.72%

Q: And the Activity (Hs-578T)?
A: 64.02%

Q: And the Activity (MDA-MB-231)?
A: 60.45%

Q: What about the Activity (DU-145) of the same compound?
A: 100.94%

Q: What about the Activity (MCF7) of the same compound?
A: 45.59%

Q: And the Activity (PC-3)?
A: 56.45%

Q: What about the Activity (UO-31) of the same compound?
A: 44.31%

Q: What about the Activity (TK-10) of the same compound?
A: 74.48%

Q: And the Activity (SN12C)?
A: 80.32%

Q: What about the Activity (CAKI-1) of the same compound?
A: 49.27%

Q: And the Activity (RXF 393)?
A: 72.21%

Q: What about the Activity (A498) of the same compound?
A: 53.74%

Q: And the Activity (786-0)?
A: 73.96%

Q: What about the Activity (SK-OV-3) of the same compound?
A: 87.98%

Q: What about the Activity [1] of the same compound?
A: 63.42%

Q: And the Activity (OVCAR-8)?
A: 80.93%

Q: And the Activity (OVCAR-4)?
A: 53.91%

Q: What about the Activity (OVCAR-3) of the same compound?
A: 89.12%

Q: What about the Activity (IGROV-1) of the same compound?
A: 62.3%

Q: What about the Activity (UACC-257) of the same compound?
A: 75.14%

Q: And the Activity (UACC-62)?
A: 53.38%

Q: And the Activity (SK-MEL-28)?
A: 74.89%

Q: What about the Activity (SK-MEL-5) of the same compound?
A: 53.16%

Q: What about the Activity (SK-MEL-2) of the same compound?
A: 78.61%

Q: And the Activity (MDA-MB-435)?
A: 4.71%

Q: And the Activity (M14)?
A: 69.54%

Q: What about the Activity (Malme-3M) of the same compound?
A: 65.64%

Q: And the Activity (LOX IMVI)?
A: 65.03%

Q: And the Activity (SNB-75)?
A: 72.63%

Q: What about the Activity (U-251) of the same compound?
A: 62.81%

Q: And the Activity (SNB-19)?
A: 86.48%

Q: What about the Activity (SF-539) of the same compound?
A: 77.5%

Q: And the Activity (NCI-H460)?
A: 82.89%

Q: And the Activity (NCI-H23)?
A: 62.15%

Q: What about the Activity (NCI-H226) of the same compound?
A: 85.46%

Q: What about the Activity (HOP-62) of the same compound?
A: 77%

Q: What about the Activity (EKVX) of the same compound?
A: 69.86%

Q: And the Activity (A549)?
A: 69.06%

Q: And the Activity (RPMI-8226)?
A: 60.49%

Q: And the Activity (SR)?
A: 23.05%

Q: And the Activity (MOLT-4)?
A: 68.41%

Q: What about the Activity (K562) of the same compound?
A: 26.39%

Q: What about the Activity (CCRF-CEM) of the same compound?
A: 63.93%

Q: What about the Activity (HL-60(TB)) of the same compound?
A: 86.39%

Q: And the Activity (SF-295)?
A: 44.14%

Q: And the Activity (SF-268)?
A: 78.33%

Q: What about the Activity (SW-620) of the same compound?
A: 67.72%

Q: What about the Activity (KM12) of the same compound?
A: 54.32%

Q: And the Activity (HCT-15)?
A: 78.57%

Q: And the Activity (HT-29)?
A: 89.7%

Q: And the Activity (HCC 2998)?
A: 80.48%

Q: And the Activity (HCT-116)?
A: 63.75%

Q: What about the Activity (COLO 205) of the same compound?
A: 99.94%

Q: And the Activity (NCI-H522)?
A: 36.96%

Q: What about the Activity (NCI-H322M) of the same compound?
A: 82.54%

Q: What about the MIC (Aspergillus niger [2]) of the same compound?
A: 250 µg/mL (≈ 468 µM)

Q: What about the MIC (Aspergillus clavatus [3]) of the same compound?
A: 500 µg/mL (≈ 935 µM)

Q: What about the MIC (Candida albicans [4]) of the same compound?
A: 500 µg/mL (≈ 935 µM)

Q: And the zone of inhibition at 250 µg/mL (Aspergillus niger [5])?
A: 23 mm

Q: What about the zone of inhibition at 250 µg/mL (Aspergillus clavatus [6]) of the same compound?
A: 24 mm

Q: What about the zone of inhibition at 250 µg/mL (Candida albicans [7]) of the same compound?
A: 23 mm

Q: And the MIC (Pseudomonas aeruginosa [8])?
A: 125 µg/mL (≈ 234 µM)

Q: What about the MIC (Streptococcus pyogenes [9]) of the same compound?
A: 250 µg/mL (≈ 468 µM)

Q: And the MIC (Escherichia coli [10])?
A: 250 µg/mL (≈ 468 µM)

Q: And the MIC (Staphylococcus aureus [11])?
A: 100 µg/mL (≈ 187 µM)

Q: What about the zone of inhibition at 250 µg/mL (Pseudomonas aeruginosa [12]) of the same compound?
A: 21 mm

Q: And the zone of inhibition at 250 µg/mL (Escherichia coli [13])?
A: 18 mm

Q: What about the zone of inhibition at 250 µg/mL (Streptococcus pyogenes [14]) of the same compound?
A: 19 mm

Q: What about the zone of inhibition at 250 µg/mL (Staphylococcus aureus [15]) of the same compound?
A: 21 mm
